The source of these data is patent US7879893B2, “Ligands for the HisB10 Zn2 + sites of the R-state insulin hexamer” (Novo Nordisk A/S, priority 2001, dated 2011).

Residues, ends and D or L forms follow the SMILES beside them. *: point of attachment. X1 = O=C1NC(=O)/C(=C/c2cccc(OCC(=O)*)c2)S1; 4Abz = Nc1ccc(C(=O)O)cc1

One data set in a line: Disappearance rate from the subcutaneous depot following subcutaneous injection in pigs (T50% of A14 Tyr(125I) insulin). It is filed as in vivo, pig. Particulars: Asp^B28 human insulin, ligand added in concentrations lower than that of Zn2+, s.c. The source says:
The slow release (prolonged action) properties of certain formulations of the present invention was characterized by the disappearance rate from the subcutaneous depot following subcutaneous injections in pigs. T50% is the time when 50% of the A14 Tyr(^125I) insulin has disappeared from the site of injection as measured with an external γ-counter (Ribel et al., The Pig as a Model for Subcutaneous Absorption in Man. In: M. Serrano-Rtios and P. J. Lefebre (Eds): Diabetes (1985) Proceedings of the 12th congress of the International Diabetes Federation, Madrid, Spain, 1985 (Excerpta Medica, Amsterdam (1986), 891-896). The composition of a series of protracted formulations is given in the table below together with the T50% values. The disappearance curves are illustrated in FIG. 3a-d. For comparison, the T50% for the corresponding insulin preparations formulated without the ligands would be about 2 hours.
The induction of slow release by addition of exogenous ligands of the invention affords further advantages in terms of versatility regarding the choice of insulin species and release patterns. Consequently, human or mutant insulins such as Asp^B28, Lys^B28Pro^B29, or Gly^A21Lys^B3Glu^B29 may be formulated as slow- or dual-release preparations by adding variable amounts of His^B10Zn^2+-site ligand. […]
In the case of `N=C(N)NCCC[C@H](NC(=O)[C@H](CCCNC(=N)N)NC(=O)[C@H](CCCNC(=N)N)NC(=O)[C@H](CCCNC(=N)N)NC(=O)[C@H](CCCNC(=N)N)NC(=O)CNC(=O)CNC(=O)c1ccc(NC(=O)COc2cccc(/C=C3\SC(=O)NC3=O)c2)cc1)C(N)=O` [TZD-Abz-G2R5, 4-{2-[3-(2,4-Dioxothiazolidin-5-ylidenemethyl)phenoxy]acetylamino}benzoyl-Gly2-Arg5-NH2] ({X1-4Abz}-GGRRRRR-NH2), the “release pattern of the formulation” value is reported as “distinctly dual-release formulation”.

Still in this data set, the particulars now being: Asp^B28 human insulin, ligand added in slight excess of the Zn2+ concentration, s.c.
`N=C(N)NCCC[C@H](NC(=O)[C@H](CCCNC(=N)N)NC(=O)[C@H](CCCNC(=N)N)NC(=O)[C@H](CCCNC(=N)N)NC(=O)[C@H](CCCNC(=N)N)NC(=O)CNC(=O)CNC(=O)c1ccc(NC(=O)COc2cccc(/C=C3\SC(=O)NC3=O)c2)cc1)C(N)=O` [TZD-Abz-G2R5, 4-{2-[3-(2,4-Dioxothiazolidin-5-ylidenemethyl)phenoxy]acetylamino}benzoyl-Gly2-Arg5-NH2] ({X1-4Abz}-GGRRRRR-NH2): the T50% entry was “about 14.8”.

Assay in another data set: not given
Conditions: not given
Take `c1cc(COc2ccc3ccccc3c2)cc(-c2nnn[nH]2)c1`: the melting point – broadly, the temperature, or range, at which the solid turns liquid – lay within 200 to 202 °C.

Compound `COc1cc(O)cc(OC)c1/C=C1\SC(=O)NC1=O` yielded a melting point of 331 to 333 °C.

The compound `O=C1NC(=O)/C(=C/c2cc3ccccc3o2)S1` yielded a melting point of 265 to 266 °C.

In turn, `CC(/C=C1\SC(=O)NC1=O)=C\c1ccccc1` yielded a melting point of 203 to 210 °C.

`O=C1NC(=O)/C(=C/C(Cl)=C/c2ccccc2)S1` gave a melting point of 251 to 254 °C.

Consider `CN(C)c1ccc(/C=C/C=C2\SC(=O)NC2=O)cc1`, for which the melting point lay in the range of 259 to 263 °C.

The compound `COc1cc(/C=C2\SC(=O)NC2=O)cc(I)c1O` gave a melting point of 256 °C.

Take `O=C1NC(=O)/C(=C/c2cc3ccccc3[nH]c2=O)S1`: the melting point lay in the range of 338 to 347 °C.

Regarding `COc1cccc(OC)c1/C=C1\SC(=O)NC1=O`, the melting point lay within 241 to 242 °C.

In turn, `O=C1NC(=O)/C(=C/c2c(Cl)cccc2Cl)S1` yielded a melting point of 152 to 154 °C.

`O=C1NC(=O)/C(=C/c2ccc3cc(O)ccc3c2)S1` had a melting point of 310 to 314 °C.

As to `Cc1cccc(C)c1/C=C1\SC(=O)NC1=O`, the melting point fell in the range of 104 to 105 °C.

The compound `O=C1NC(=O)C(=Cc2c[nH]c3ccc([N+](=O)[O-])cc23)S1` gave a melting point of 330 to 333 °C.

Assay in the next data set: not given
Particulars: inherent limitation, background statement; cited from earlier work.
With “soluble human insulin hexamer: "inherent limitation of the absorption half-life to about 4 hours for a soluble human insulin hexamer"”, the absorption half-life result is “about 4 hours”.

The same data set, now with this note: soluble preparations, background statement; cited from earlier work.
Consider “Co^3+-hexamer: "absorption rates vary between about 1 hour (for rapid-acting insulin analogues ...) and about 4 hours (Co^3+-hexamer)"”, for which the “absorption rate (time) after subcutaneous injection” value is listed as “about 4 hours”.
